Experimental data as given in patent US8084431B2, “Method for inhibiting activation of macrophages, inhibiting formation of osteoclasts, inhibiting function of osteoclasts, and/or activating osteoblasts” (China Medical University, priority 2008, dated 2011).
Where two headings read alike, the source gives them in different places. Marks after values point to notes of the source that are not given here.

Key:
[1] = tested on: macrophages RAW 264.7; experiment: NO release of LPS-induced macrophages RAW 264.7 (Griess reagent); format: cell-based; details: 24 hours
Description: 24 hours later, the supernatant was collected, and the content of nitric oxide was determined with a Griess reagent (Sigma). After macrophages RAW 264.7 were scratched off the culture plates, proteins were extracted, and then the expression of nitric oxide synthase (iNOs), p65, and p50 (nuclear factor kappa B or NF-κB, transcription factor) was analyzed with the western blot method.

[2] = tested on: MMP-9 (metalloproteinases 9); experiment: RT-PCR of MMP-9 mRNA in RANKL-treated macrophages RAW 264.7; format: cell-based; details: kinsenoside 50 μM, RANKL 50 ng/ml, 24, 48, 72 hours, FIG. 8A and 8B
Description: As osteoclasts are activated, they RELEASE MMP-9 (metalloproteinases 9) to erode collagen in bones. Using RT-PCR to analyze the expression of mRNA of MMP-9, one can see if kinsenoside inhibits the bone resorption activity of osteoclasts.
As macrophages RAW 264.7 were incubated in culture plates containing 50 ng/ml of RANKL, 50 μM of kinsenoside was added thereto. After the macrophages RAW 264.7 were incubated for 24, 48, and 72 hours, mRNAs were extracted to analyze the expression of MMP-9 with RT-PCR. […] Thus, kinsenoside can inhibit the bone resorption of osteoclasts.

[3] = tested on: myelocytes of rats; experiment: Formation of osteoclasts from rat myelocytes (RANKL + M-CSF, TRAP stain); format: cell-based, Wistar rats; details: for inhibition at 5 µM / inhibition at 25 µM / inhibition at 50 µM / inhibition at 100 µM: Rattus norvegicus, Osteoclast, 216 h, 9 days
Description: Myelocytes were first prepared. Male Wistar rats with the body weight of 250 g to 300 g were used to prepare myelocytes. Under the condition of anaesthesia, the femurs of the rats were taken, and myelocytes were washed out with a phosphate buffer solution. […] After incubation for 9 days, monocytes in the marrow differentiated into osteoclasts. The osteoclasts were stained with a TRAP (tartrate-resistant acid phosphatase) stain reagent (Sigma, Louis, Mo., USA), and the number of the osteoclasts was calculated. Besides the same RANKL and M-CSF as the control group, various concentrations (0, 5, 25, 50, and 100 μM) of kinsenoside or 10 nM of estradiol (Wako, Japan) were added into culture plates, respectively. Then, rat myelocytes were incubated for 9 days, and the situation that the myelocytes differentiated into osteoclasts was observed. The percentage of the inhibition effect of kinsenoside and estradiol on the formation of osteoclasts was calculated with the following formula, and the result is shown in Table 9. Inhibition percentage (%)=(the number of osteoclasts of the control group−the number of osteoclasts of the experimental group)/the number of osteoclasts of the control group×100% In addition to the aforesaid RANKL, kinsenoside, and/or estradiol, the inhibitor of estradiol, Fulvestrant (Sigma, Louis, Mo., USA) (1 nM), was also added into culture plates. Then, rat myelocytes were incubated for 9 days, and the situation that the myelocytes differentiated into osteoclasts was observed. The percentage of the inhibition effect of kinsenoside on the formation of osteoclasts was calculated, and the result is shown in Table 9.

[4] = tested on: ICR mice administrated with lipopolysaccharides; experiment: LPS-induced inflammatory cytokines in the blood of ICR mice (ELISA); format: in vivo; details: LPS 40 mg/kg, 1 hour
Description: ICR mice were intraperitoneally administrated with various dosages (100 mg/kg or 300 mg/kg) of kinsenoside. 30 minutes later, the ICR mice were intraperitoneally administrated with 40 mg/kg of lipopolysaccharides. 1 hour later, the blood of the ICR mice was collected from the retro-orbital sinus, and the concentrations of TNF-α and IL-1β were determined with an ELISA (enzyme linked immunosorbent assay) reagent (eBioscience, Boston, Mass.).

[5] = tested on: BALB/c mice with collagen-induced rheumatoid arthritis; experiment: Collagen-induced rheumatoid arthritis of BALB/c mice; format: in vivo; details: for CD4/278 (ratio of Th2 cells) / CD19/45 (ratio of B cells) / the number of lymphocytes: inguinal lymph nodes; for IgE / IgG1 / TNF-α: serum
Description: BALB/c mice were purchased from the National Laboratory Animal Center, Taiwan. 200 μg of type-IT collagen (Sigma) was subcutaneously injected into the tails of the BALB/c mice to induce the rheumatoid arthritis, wherein type-II collagen was emulsified with a Freund's complete adjuvant (Sigma) previously. At the […], 200 μg of type-II collagen was subcutaneously injected into the tails of the BALB/c mice again, and type-II collagen was emulsified with a Freund's incomplete adjuvant (Sigma) previously. From the day of the second injection, the BALB/c mice were administrated orally with kinsenoside (100 or 300 mg/kg) daily for 21 days. After 21 days, the BALB/c mice were sacrificed, and the blood, inguinal lymph nodes, and soles comprising joints of the BALB/c mice were collected for assay.
The concentrations of TNF-α and antibodies IgE and IgG1 in the serum were determined with ELISA method. Antibodies IgE and IgG1 reagents were purchased form Bethyl, Montgomery, Tex., USA.
Lymph nodes were taken from the both sides of the groins of the BALB/c mice, and were sieved to produce a single suspended cell line. The number of lymphocytes was determined with a flow cytometer. In addition, B cells and Th2 cells were stained with antibodies CD19/45 and CD4/278 (eBioscience) to obtain the ratio of B cells and Th2 cells.
The mRNAs were extracted from the right soles and joints of the mice, and the expression of the mRNAs of TNF-α was analyzed with RT-PCR (Reverse Transcription-Polymerase Chain Reaction).

[6] = with Fulvestrant 1 nM, read-out: inhibition percentage Experimental Group II
[7] = without Fulvestrant, read-out: inhibition percentage Experimental Group I
[8] = kinsenoside 100 mg/kg intraperitoneal
[9] = kinsenoside 300 mg/kg intraperitoneal
[10] = kinsenoside 100 mg/kg oral daily for 21 days
[11] = kinsenoside 300 mg/kg oral daily for 21 days

SMILES: O=C1C[C@@H](OC2OC(CO)C(O)C(O)C2O)CO1 (stereo partly drawn) [kinsenoside, 3-(R)-3-β-D-glucopyranosyloxy-butanolide]
- the concentration of NO ([1]; kinsenoside 10 μM): 15.5 ± 3.7 µM
- the concentration of NO ([1]; kinsenoside 50 μM): 12.0 ± 3.1 µM
- the concentration of NO ([1]; kinsenoside 100 μM): 8.4 ± 1.7 µM
- expression of mRNA of MMP-9 [2]: inhibits the expression of mRNA of MMP-9
- effect of Fulvestrant on the inhibition of osteoclast formation ([3]; Fulvestrant 1 nM, summary of Table 9): no inhibition effect
- inhibition at 5 µM [3, 6]: 12 ± 7.5%
- inhibition at 5 µM [3, 7]: 15.3 ± 7.2%
- inhibition at 25 µM [3, 6]: 16.3 ± 6.7%
- inhibition at 25 µM [3, 7]: 25 ± 2%
- inhibition at 50 µM [3, 6]: 65.7 ± 3.8%
- inhibition at 50 µM [3, 7]: 50.3 ± 4.2%
- inhibition at 100 µM [3, 6]: 76 ± 3.6%
- inhibition at 100 µM [3, 7]: 78.1 ± 2.8%
- IL-1β [4, 8]: 371.1 ± 127.8 ng/mL
- TNF-α [4, 8]: 680.5 ± 160.2 ng/mL
- IL-1β [4, 9]: 272.6 ± 102.6 ng/mL
- TNF-α [4, 9]: 513.4 ± 155.0 ng/mL
- CD4/278 (ratio of Th2 cells) [5, 10]: 8.0 ± 0.6 %
- CD19/45 (ratio of B cells) [5, 10]: 19.3 ± 2.1 %
- the number of lymphocytes [5, 10]: 3.3 ± 0.6* 10^5/ml
- CD4/278 (ratio of Th2 cells) [5, 11]: 7.6 ± 0.6 %
- CD19/45 (ratio of B cells) [5, 11]: 18.6 ± 3.6 %
- the number of lymphocytes [5, 11]: 2.8 ± 1.0*** 10^5/ml
- expression of mRNAs of TNF-α ([5]; right soles and joints, RT-PCR, kinsenoside 100 or 300 mg/kg oral, FIG. 5A and 5B): alleviates the expression of mRNAs of TNF-α
- IgE [5, 10]: 0.15 ± 0.03 absorbance
- IgG1 [5, 10]: 2.44 ± 0.05 absorbance
- TNF-α [5, 10]: 825.9 ± 155.4* 10^−12 g/ml
- IgE [5, 11]: 0.13 ± 0.04 absorbance
- IgG1 [5, 11]: 2.41 ± 0.10 absorbance
- TNF-α [5, 11]: 790.0 ± 194.1* 10^−12 g/ml
